Measurements: ChEMBL document CHEMBL3885861, “Open TG-GATES”

Species on record: Rattus norvegicus
Assay: Open TG-GATES - Regimen: Single
Type: toxicity, organism-based, Sprague-Dawley
Parameters: regimen Single, gender Male, age 6 weeks
Conditions: in vivo, po, 1000 mg/kg, route gavage, dose level High; for APTT / Bas / Eos / Fbg / Hb / Ht / Lym / MCH / MCHC / MCV / Mono / Neu / PT / Plat / RBC / Ret / WBC: tissue Blood; for KIDNEY_L / KIDNEY_R / KIDNEY_TOTAL: tissue Kidney; for LIVER: tissue Liver; for A/G / ALP / ALT / AST / BUN / CRE / Ca / Cl / DBIL / GLC / IP / K / LDH / Na / PL / RALB / TBIL / TC / TG / TP / gamma-GTP: tissue Plasma

Structure (SMILES): CCc1cc(C(N)=S)ccn1 [ETHIONAMIDE]
- TERMINAL_BW (9 h): 224.3 g
- APTT (9 h): 18.3 s
- Bas (9 h): 0%
- Eos (9 h): 1.2%
- Fbg (9 h): 209 mg/dL
- Hb (9 h): 14 g/dL
- Ht (9 h): 41.3%
- Lym (9 h): 73.8%
- MCH (9 h): 21.2 pg
- MCHC (9 h): 33.8%
- MCV (9 h): 62.8 fL
- Mono (9 h): 8.4%
- Neu (9 h): 16.8%
- PT (9 h): 14.6 s
- Plat (9 h): 121.3 x10_4/uL
- RBC (9 h): 657 x10_4/ul
- Ret (9 h): 7.5%
- WBC (9 h): 77.3 x10_2/uL
- KIDNEY_L (9 h): 1 g
- KIDNEY_R (9 h): 1 g
- KIDNEY_TOTAL (9 h): 2 g
- LIVER (9 h): 9.7 g
- A/G (9 h): 1.9
- ALP (9 h): 641 IU/L
- ALT (9 h): 36.2 IU/L
- AST (9 h): 75.2 IU/L
- BUN (9 h): 16.4 mg/dL
- CRE (9 h): 0.5 mg/dL
- Ca (9 h): 10.6 mg/dL
- Cl (9 h): 104.6 meq/L
- DBIL (9 h): 0.018 mg/dL
- GLC (9 h): 202 mg/dL
- IP (9 h): 9.6 mg/dL
- K (9 h): 4.3 meq/L
- LDH (9 h): 99 IU/L
- Na (9 h): 140.6 meq/L
- PL (9 h): 107.8 mg/dL
- RALB (9 h): 3.5 g/dL
- TBIL (9 h): 0.4 mg/dL
- TC (9 h): 59.4 mg/dL
- TG (9 h): 14.8 mg/dL
- TP (9 h): 5.3 g/dL
- gamma-GTP (9 h): 1.2 IU/L
- TERMINAL_BW (24 h): 219.4 g
- APTT (24 h): 18.9 s
- Bas (24 h): 0%
- Eos (24 h): 1.6%
- Fbg (24 h): 186.4 mg/dL
- Hb (24 h): 15.3 g/dL
- Ht (24 h): 45.1%
- Lym (24 h): 62.2%
- MCH (24 h): 22.2 pg
- MCHC (24 h): 34%
- MCV (24 h): 65.3 fL
- Mono (24 h): 7.8%
- Neu (24 h): 28.2%
- PT (24 h): 15.4 s
- Plat (24 h): 118 x10_4/uL
- RBC (24 h): 691.2 x10_4/ul
- Ret (24 h): 8.3%
- WBC (24 h): 63.3 x10_2/uL
- KIDNEY_L (24 h): 1 g
- KIDNEY_R (24 h): 1 g
- KIDNEY_TOTAL (24 h): 2 g
- LIVER (24 h): 10.1 g
- A/G (24 h): 2
- ALP (24 h): 839.2 IU/L
- ALT (24 h): 36.6 IU/L
- AST (24 h): 68.6 IU/L
- BUN (24 h): 13 mg/dL
- CRE (24 h): 0.6 mg/dL
- Ca (24 h): 10.3 mg/dL
- Cl (24 h): 102.2 meq/L
- DBIL (24 h): 0.054 mg/dL
- GLC (24 h): 228.8 mg/dL
- IP (24 h): 8.3 mg/dL
- K (24 h): 3.9 meq/L
- LDH (24 h): 87.6 IU/L
- Na (24 h): 140.8 meq/L
- PL (24 h): 86.6 mg/dL
- RALB (24 h): 3.6 g/dL
- TBIL (24 h): 0.4 mg/dL
- TC (24 h): 41.4 mg/dL
- TG (24 h): 41.8 mg/dL
- TP (24 h): 5.3 g/dL
- gamma-GTP (24 h): 0.4 IU/L
